Tests used:
[1] = system: TmrA^EQB (TmrA^E523QB); test: Single-molecule (smFRET) peptide translocation by slow-turnover TmrA^EQB in liposomes; conditions: 10 µM valinomycin, K+ buffer, Mg-ATP 3 mM, peptide 200 µM, 45 °C 5 min; and control at 30 °C
Method: For single-molecule experiments, a protein-to-lipid ratio (w/w) of 1:10,000 and an OppA-to-liposome ratio of 0.2 molecules per liposome were used. For ensemble transport assays, a protein-to-lipid ratio (w/w) of 1:20 was applied. Extruded LUVs were destabilized by incubation with 0.3% (v/v) Triton X-100 (TX-100) for 30 min. TmrAB and OppA were then added to the detergent-destabilized liposomes and incubated for 30 min at 8 °C under gentle rotation. Detergent removal was performed gradually using sequential additions of polystyrene Bio-Beads SM-2 (Bio-Rad): two incubations at 40 mg/mL (1 h and overnight), followed by two incubations at 80 mg/mL (1 h each). […]
Single-molecule FRET experiments were conducted using a flow chamber system to immobilize liposomes and transporters in an uptake-competent orientation. […] Laser powers were set to 0.8 mW/cm^2 (532 nm excitation) and 0.9 mW/cm^2 (640 nm excitation), with data recorded in 1-min intervals.
Single-molecule FRET (smFRET) measurements were performed using ALEX, allowing the assignment of detected photons based on both excitation and emission wavelength. […] From these signals, FRET efficiency (E) and stoichiometry (S) were calculated and FRET traces extracted using NanoImager software (ONI Nanoimager Development Build) and analyzed with deepFRET[56]. […] Dynamic smFRET traces were further analyzed via HMM by deepFRET. […]

[2] = system: TmrAB^WT; test: LC-MS-based peptide transport assay; assay type: biochemical, Thermus thermophilus; conditions: Mg-ATP 3 mM, ATP regeneration system, 45 °C 45 min, n = 3 technical replicates
Method: For single-molecule experiments, a protein-to-lipid ratio (w/w) of 1:10,000 and an OppA-to-liposome ratio of 0.2 molecules per liposome were used. For ensemble transport assays, a protein-to-lipid ratio (w/w) of 1:20 was applied. Extruded LUVs were destabilized by incubation with 0.3% (v/v) Triton X-100 (TX-100) for 30 min. TmrAB and OppA were then added to the detergent-destabilized liposomes and incubated for 30 min at 8 °C under gentle rotation. Detergent removal was performed gradually using sequential additions of polystyrene Bio-Beads SM-2 (Bio-Rad): two incubations at 40 mg/mL (1 h and overnight), followed by two incubations at 80 mg/mL (1 h each). Finally, proteoliposomes were harvested by ultracentrifugation (100,000 × g, 30 min, 4 °C) and resuspended in the appropriate buffer.
Reactions were stopped with ice-cold liposome buffer containing 10 mM EDTA. Samples were ultracentrifuged (450,000 × g, 30 min, 4 °C), and pellets were resuspended in 200 µL of 100 mM Na2CO3 (pH 11.5), followed by a second ultracentrifugation under the same conditions. […] A final ultracentrifugation (450,000 × g, 1.5 h, 4 °C) was performed before LC-MS analysis using a Waters BioAccord system (UNIFY 3.1.0). […] Quantification was based on total ion chromatogram peak areas at the peptide-specific retention times.

[3] = system: TmrAB^WT; test: Filter plate-based peptide transport assay; assay type: biochemical, Thermus thermophilus; conditions: C4F 10 µM
[4] = system: TmrAB^WT; test: Single-liposome transport monitored by flow cytometry; assay type: biochemical, Thermus thermophilus; conditions: flow cytometry single-liposome assay

CC(C)[C@@H]1NC(=O)[C@H](C)OC(=O)[C@@H](C(C)C)NC(=O)[C@@H](C(C)C)OC(=O)[C@H](C(C)C)NC(=O)[C@H](C)OC(=O)[C@@H](C(C)C)NC(=O)[C@@H](C(C)C)OC(=O)[C@H](C(C)C)NC(=O)[C@H](C)OC(=O)[C@@H](C(C)C)NC(=O)[C@@H](C(C)C)OC1=O [valinomycin] was tested, and the “effect of dissipating membrane potential on translocation” value [1] was “excluded effects from a transmembrane potential”.

With GIINTLEEL [9mer peptide] the “ATP-dependent transport, in words” value [2] was “signiﬁcant ATP-dependent transport”.

In the case of “RRYC(Fluorescein)KSTEL [C4F, RRYC^FLKSTEL, fluorescein-labeled peptide RRYC^FLKSTEL]”, the “ATP-dependent transport, in words” value [2] is reported as “signiﬁcant ATP-dependent transport”, the “peptide transport, in words” value ([3]; ATP-EDTA 3 mM) is reported as “no transport above ADP-EDTA (3 mM) background” and the “peptide transport, in words” value ([3]; Mg-ATP 3 mM) is reported as “robust transport”.

B1: Nb9F10: conformation-independent nanobody tethered via PEG11-biotin (antibody, V domains shown)
VH: QLQLVESGGGLVQPGDSLRLSCAVSGSALDYNAIGWFRQAPGKEREGVACISKITGNTAYADCVKGRFTISRDNAKNTVHLQMNSLKPEDTAVYYCATVTAVLLPGRCVPGKYWGQGTPVTVSS
With B1 the “effect of nanobody binding on TmrAB transport activity” value [4] was “did not alter transport activity”.

Reference: publication PMC13040083, “Single-molecule dynamics reveal ATP binding alone powers substrate translocation by an ABC transporter” (Nature Communications, 2026)
